Measured values: paper PMC2798597 (Biochemical pharmacology, 2009)

Columns and labels:
[1] = tested on: MCF-7; assay: MTT cytotoxicity / MDR reversal; assay type: cell-based, human; details: MCF-7 cells
[2] = tested on: MCF-7/adr (ABCB1); assay: MTT cytotoxicity / MDR reversal; assay type: cell-based, human; details: MCF-7/adr cells
[3] = tested on: KB; assay: MTT cytotoxicity / MDR reversal; assay type: cell-based, human; details: KB cells
[4] = tested on: KBv200 (ABCB1); assay: MTT cytotoxicity / MDR reversal; assay type: cell-based, human; details: KBv200 cells
[5] = tested on: KB-3-1; assay: MTT cytotoxicity / MDR reversal; assay type: cell-based, human; details: KB-3-1 cells; +5 µM FG020326
[6] = tested on: KB-CV60 (ABCC1); assay: MTT cytotoxicity / MDR reversal; assay type: cell-based, human; details: KB-CV60 cells; +5 µM FG020326
[7] = tested on: NIH3T3; assay: MTT cytotoxicity / MDR reversal; assay type: cell-based, murine; details: NIH3T3 cells; +5 µM FG020326
[8] = tested on: NIH3T3/MRP-4-2 (ABCC4); assay: MTT cytotoxicity / MDR reversal; assay type: cell-based, murine; details: NIH3T3/MRP-4-2 cells; +5 µM FG020326
[9] = tested on: S1; assay: MTT cytotoxicity / MDR reversal; assay type: cell-based; details: S1 cells; +5 µM FG020326
[10] = tested on: S1-M1-80 (ABCG2); assay: MTT cytotoxicity / MDR reversal; assay type: cell-based; details: S1-M1-80 cells; +5 µM FG020326
[11] = tested on: SW1573; assay: MTT cytotoxicity / MDR reversal; assay type: cell-based, human; details: SW1573 cells; +5 µM FG020326
[12] = tested on: SW1573/2R120 (LRP); assay: MTT cytotoxicity / MDR reversal; assay type: cell-based, human; details: SW1573/2R120 cells; +5 µM FG020326
[13] = tested on: the entire cell lines tested; assay: MTT cytotoxicity of FG020326 alone; assay type: cell-based
[14] = tested on: KBv200 cell xenografts; assay: MDR human carcinoma xenograft model; assay type: in vivo, athymic nude mice
[15] = FG020326 plasma levels in mice; assay type: in vivo; details: NIH mice, 100 mg/kg p.o.; for plasma concentration at 8 h: 8 h after administration
[16] = tested on: KBv200 cells; assay: Intracellular Dox accumulation; assay type: cell-based, human
[17] = tested on: KB cells; assay: Intracellular Dox accumulation; assay type: cell-based, human; details: drug sensitive KB cells; 0.625-10 µM
[18] = tested on: KBv200 cells; assay: Dox efflux; assay type: cell-based, human; details: 5 µM FG020326
[19] = tested on: KB cells; assay: Dox efflux; assay type: cell-based, human; details: 5 µM FG020326
[20] = tested on: KB cells; assay: ABCB1 function analysis, Rho 123 retention; assay type: cell-based, human; details: drug sensitive KB cells
[21] = molecular target: ABCB1 (Homo sapiens, UniProt P08183); assay type: biochemical; details: read-out: IC50, inhibition of ABCB1 ATPase activity; Vi-sensitive ATPase; membrane vesicles of High Five insect cells
ABCB1, sequence (P08183 whole entry): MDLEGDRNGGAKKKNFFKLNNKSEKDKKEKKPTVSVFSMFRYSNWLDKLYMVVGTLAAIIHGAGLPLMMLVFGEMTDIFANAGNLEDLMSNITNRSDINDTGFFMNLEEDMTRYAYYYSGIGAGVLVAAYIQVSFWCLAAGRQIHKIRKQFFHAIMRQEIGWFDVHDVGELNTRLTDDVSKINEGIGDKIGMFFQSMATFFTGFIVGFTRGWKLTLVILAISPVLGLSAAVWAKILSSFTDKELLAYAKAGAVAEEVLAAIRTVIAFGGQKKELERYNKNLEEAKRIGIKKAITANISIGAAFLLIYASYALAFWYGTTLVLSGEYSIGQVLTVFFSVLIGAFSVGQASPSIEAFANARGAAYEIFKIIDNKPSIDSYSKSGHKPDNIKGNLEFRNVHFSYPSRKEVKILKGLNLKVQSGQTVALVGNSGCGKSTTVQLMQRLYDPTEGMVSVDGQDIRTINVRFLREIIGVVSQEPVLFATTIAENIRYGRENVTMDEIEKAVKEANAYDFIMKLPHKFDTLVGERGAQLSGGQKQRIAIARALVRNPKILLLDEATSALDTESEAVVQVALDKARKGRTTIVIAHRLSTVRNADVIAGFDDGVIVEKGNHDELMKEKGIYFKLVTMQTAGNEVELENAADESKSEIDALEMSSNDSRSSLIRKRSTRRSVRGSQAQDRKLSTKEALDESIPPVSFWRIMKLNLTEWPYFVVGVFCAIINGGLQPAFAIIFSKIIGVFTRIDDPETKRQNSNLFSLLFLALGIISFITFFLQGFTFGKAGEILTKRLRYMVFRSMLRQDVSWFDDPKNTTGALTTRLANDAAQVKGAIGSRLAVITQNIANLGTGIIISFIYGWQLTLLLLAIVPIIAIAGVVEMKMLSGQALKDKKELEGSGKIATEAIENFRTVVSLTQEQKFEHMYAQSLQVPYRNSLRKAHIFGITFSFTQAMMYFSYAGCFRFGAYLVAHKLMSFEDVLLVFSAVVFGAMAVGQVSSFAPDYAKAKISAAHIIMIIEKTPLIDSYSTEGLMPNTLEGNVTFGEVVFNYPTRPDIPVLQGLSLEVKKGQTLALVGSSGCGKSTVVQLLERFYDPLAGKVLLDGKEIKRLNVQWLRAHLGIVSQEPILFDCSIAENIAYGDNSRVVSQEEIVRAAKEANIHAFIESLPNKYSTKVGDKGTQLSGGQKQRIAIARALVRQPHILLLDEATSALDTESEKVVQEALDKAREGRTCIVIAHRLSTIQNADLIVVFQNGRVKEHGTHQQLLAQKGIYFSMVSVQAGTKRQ

[22] = tested on: ABCB1 expression in KBv200 cells; details: 48 h, Western blot
[23] = VCR experiment, VCR 0.2 mg/kg i.p. q2d×6, FG020326 100 mg/kg p.o. q2d×6
[24] = paclitaxel experiment, paclitaxel 18 mg/kg i.p. q5d×3, FG020326 100 mg/kg p.o.

For `COC(=O)/C=C/c1ccc(-c2nc(-c3ccc(N(C)C(C)C)cc3)c(-c3ccc(N(C)C(C)C)cc3)[nH]2)cc1` [FG020326, 2-[(4-Methyl-trans-acrylate)phenyl]-4,5-bis-(4-N, N-methyl-isopropyl-aminophenyl)-1(H)-imidazole], the “fold-reversal (doxorubicin)” value ([1]; +1.25 µM FG020326) was “(1.0) fold”, the “fold-reversal (paclitaxel)” value ([1]; +1.25 µM FG020326) was “(1.1) fold” and the “fold-reversal (vincristine)” value ([1]; +1.25 µM FG020326) was “(0.9) fold”. For the same compound, the “fold-reversal (doxorubicin)” value ([1]; +2.5 µM FG020326) was “(1.0) fold”, the “fold-reversal (paclitaxel)” value ([1]; +2.5 µM FG020326) was “(1.0) fold” and the “fold-reversal (vincristine)” value ([1]; +2.5 µM FG020326) was “(1.0) fold”. For the same compound, the “fold-reversal (cisplatin)” value ([1]; +5 µM FG020326) was “(0.9) fold”, the “fold-reversal (doxorubicin)” value ([1]; +5 µM FG020326) was “(0.9) fold” and the “fold-reversal (paclitaxel)” value ([1]; +5 µM FG020326) was “(1.0) fold”. The “fold-reversal (vincristine)” value ([1]; +5 µM FG020326) was “(0.9) fold”, the “fold-reversal (doxorubicin)” value ([2]; +1.25 µM FG020326) was “(6.4) fold” and the “fold-reversal (paclitaxel)” value ([2]; +1.25 µM FG020326) was “(3.5) fold”. The “fold-reversal (vincristine)” value ([2]; +1.25 µM FG020326) was “(2.3) fold”, the “fold-reversal (doxorubicin)” value ([2]; +2.5 µM FG020326) was “(9.6) fold” and the “fold-reversal (paclitaxel)” value ([2]; +2.5 µM FG020326) was “(8.8) fold”. The “fold-reversal (vincristine)” value ([2]; +2.5 µM FG020326) was “(4.6) fold”, the “fold-reversal (cisplatin)” value ([2]; +5 µM FG020326) was “(0.9) fold” and the “fold-reversal (doxorubicin)” value ([2]; +5 µM FG020326) was “(14.3) fold”. The “fold-reversal (paclitaxel)” value ([2]; +5 µM FG020326) was “(22.0) fold”, the “fold-reversal (vincristine)” value ([2]; +5 µM FG020326) was “(10.7) fold” and the “fold-reversal (doxorubicin)” value ([3]; +1.25 µM FG020326) was “(1.0) fold”. The “fold-reversal (paclitaxel)” value ([3]; +1.25 µM FG020326) was “(1.0) fold”, the “fold-reversal (vincristine)” value ([3]; +1.25 µM FG020326) was “(1.0) fold” and the “fold-reversal (doxorubicin)” value ([3]; +2.5 µM FG020326) was “(1.0) fold”. The “fold-reversal (paclitaxel)” value ([3]; +2.5 µM FG020326) was “(1.0) fold”, the “fold-reversal (vincristine)” value ([3]; +2.5 µM FG020326) was “(1.0) fold” and the “fold-reversal (5-FU)” value ([3]; +5 µM FG020326) was “(1.0) fold”. For the same compound, the “fold-reversal (doxorubicin)” value ([3]; +5 µM FG020326) was “(0.9) fold”, the “fold-reversal (paclitaxel)” value ([3]; +5 µM FG020326) was “(1.1) fold” and the “fold-reversal (vincristine)” value ([3]; +5 µM FG020326) was “(1.0) fold”. For the same compound, the “fold-reversal (doxorubicin)” value ([4]; +1.25 µM FG020326) was “(4.2) fold”, the “fold-reversal (paclitaxel)” value ([4]; +1.25 µM FG020326) was “(5.0) fold” and the “fold-reversal (vincristine)” value ([4]; +1.25 µM FG020326) was “(16.7) fold”. The “fold-reversal (doxorubicin)” value ([4]; +2.5 µM FG020326) was “(8.0) fold”, the “fold-reversal (paclitaxel)” value ([4]; +2.5 µM FG020326) was “(10.3) fold” and the “fold-reversal (vincristine)” value ([4]; +2.5 µM FG020326) was “(34.7) fold”. The “fold-reversal (doxorubicin)” value ([4]; +5 µM FG020326) was “(12.2) fold”, the “fold-reversal (paclitaxel)” value ([4]; +5 µM FG020326) was “(30.4) fold” and the “fold-reversal (vincristine)” value ([4]; +5 µM FG020326) was “(57.3) fold”. The “fold-reversal (vincristine)” value [5] was “(0.9) fold”, the “fold-reversal (vincristine)” value [6] was “(0.9) fold” and the “fold-reversal (vincristine)” value [7] was “(0.9) fold”. For the same compound, the “fold-reversal (vincristine)” value [8] was “(0.9) fold”, the “fold-reversal (topotecan)” value [9] was “(1.1) fold” and the “fold-reversal (topotecan)” value [10] was “(1.0) fold”. The “fold-reversal (doxorubicin)” value [11] was “(1.2) fold”, the “fold-reversal (doxorubicin)” value [12] was “(1.0) fold” and the Cell survival ([13]; all cell lines, concentrations used to reverse MDR, data not shown) was > 90%. For the same compound, the IC50 ([13]; read-out: IC50 (cytotoxicity of FG020326 alone), MTT, entire cell lines tested) was > 50000 nM, the “Growth Inhibition” value [14, 23] was 9.4% and the Weight of tumor [14, 23] was 2.43 ± 0.70 g. The “Growth Inhibition” value [14, 24] was 7.2%, the Weight of tumor [14, 24] was 2.08 ± 1.00 g and the peak plasma concentration ([15]; 100 mg/kg) was “about 5.3 µM”. The “plasma concentration at 8 h” value ([15]; 100 mg/kg) was “not less than 1.24 µM”, the “plasma concentration at 8 h” value ([15]; listed as FG020236, 100 mg/kg) was > 1240 nM and the “plasma concentration at 12 h” value ([15]; 12 h after administration) was 920 nM. For the same compound, the peak plasma concentration ([15]; listed as FG020236, 100 mg/kg) was 5.3 µM, the “enhancement of Dox accumulation” value ([16]; 0.625 µM FG020326, 10 µM Dox) was 1.4 fold and the “enhancement of Dox accumulation” value ([16]; 1.25 µM FG020326, 10 µM Dox) was 2.1 fold. For the same compound, the “enhancement of Dox accumulation” value ([16]; 2.5 µM FG020326, 10 µM Dox) was 2.6 fold, the “enhancement of Dox accumulation” value ([16]; 5 µM FG020326, 10 µM Dox) was 3.0 fold and the “enhancement of Dox accumulation” value ([16]; 10 µM FG020326, 10 µM Dox) was 3.7 fold. The “effect on intracellular accumulation of Dox” value [17] was “did not significantly alter the intracellular accumulation of Dox”, the “effect on efflux of Dox” value [18] was “significantly inhibited the efflux of Dox” and the “effect on efflux of Dox” value [19] was “but not the KB cells”. The “effect on Rho 123 accumulation” value [20] was “not significantly altered”, the IC50 [21] was 2500 nM and the “effect on ABCB1 protein expression level” value [22] was “no marked difference”.
